{
  "source": "paper PMC2288786",
  "about": "(BMC Structural Biology, 2008)",
  "key": {"[1]": {"biological_target": "T1, CaM (Rattus norvegicus, UniProt P0DP29)", "T1 construct": "made in house; host or cells: E. coli Rosetta (DE3)", "assay": "Isothermal titration calorimetry of MBP peptide binding to CaM", "design": "species or system vertebrate", "description": "The peptide was dissolved in 50 mM HEPES pH 7.5, 20 mM CaCl2 and stored at -20°C. […] Native MBP protein isolated using the chloroform extraction method from post-mortem human brain was obtained from FermLab (Turku, Finland).\nThe samples for the experiment were extensively dialysed against 50 mM HEPES pH 7.5, 20 mM CaCl2 and degassed in an ultrasonic water bath. […] The first injection of 2 μl was followed by 19 15-μl injections of the peptide. The experiment was carried out at +25, +30, +35, and +40°C. The dilution heat was measured by titrating the buffer with the 1 mM peptide solution. […] The raw data were fitted by non-linear least squares minimisation with models for both a single site and four binding sites (see Results), using the Origin version 5.0 software (MicroCal)."}, "[2]": {"biological_target": "T1, CaM", "assay": "Surface plasmon resonance, peptide over immobilised CaM", "assay_type": "binding, vertebrate", "description": "SPR assays were performed with a Biacore 3000 instrument (Biacore AB, Uppsala, Sweden). […] Binding of the peptide was tested in 10 mM HEPES pH 7.5, 150 mM NaCl, 4 mM CaCl2 containing 0.005% P-20 surfactant (Biacore AB), at a flow rate of 30 μl/min. Various concentrations of the peptide (2.5–200 μM) were injected in duplicate over both of the flow cells for 3 min, and a 6-min dissociation phase followed each injection. The surfaces were regenerated with a 20-s injection of 10 mM EDTA and another 10-s injection of 20 mM NaOH at a flow rate of 30 μl/min prior to the next injection cycle. The BIAevaluation software version 3.1 (Biacore AB) was used to analyse the data. […] Furthermore, a sensorgram of the injection of buffer alone was subtracted from the data. The data were analysed using the various interaction models available in the software, including the mass transfer model. The only model giving a reasonable fit to the data was the conformational change model (see Results).\nA 20-μM solution of the peptide in the running buffer was injected over the flow cells of the CaM-coated sensor chip at a flow rate of 30 μl/min, using different injection times (1, 3, and 20 min). Each injection was followed by a 15-min dissociation time. The surface was regenerated and the data were treated as above."}, "[3]": {"biological_target": "T1, CaM", "assay": "Far-UV circular dichroism, k2d secondary structure deconvolution", "assay_type": "physicochemical, vertebrate", "details": "k2d deconvolution of CD spectrum, +20°C, 10 mM HEPES pH 7.5, 150 mM NaCl, 4 mM CaCl2; CaM 0.050 mg/ml, peptide 0.030 mg/ml", "description": "The spectra were corrected by subtracting the spectrum of a buffer sample (10 mM HEPES pH 7.5, 150 mM NaCl, 4 mM CaCl2). Noise reduction was applied to smooth the data with the Jasco software. The spectra are presented as mean residue ellipticity (θ), calculated by using the molar concentration of peptide or protein and multiplying by the appropriate number of peptide bonds. […] Secondary structure contents of the samples were estimated with the program […] [26]."}, "[4]": {"biological_target": "T1, CaM", "assay": "Size exclusion chromatography of CaM with and without MBP peptide", "assay_type": "binding, vertebrate", "details": "Superdex 75, free CaM", "quoted_text": "Gel filtration chromatography with the ÄKTApurifier system (Pharmacia Biotech) was used to investigate the difference in the behaviour of CaM in the presence and absence of the MBP peptide. A Superdex 75 HR 10/30 column (Amersham Pharmacia Biotech) was equilibrated with 50 mM HEPES buffer pH 7.5, 150 mM NaCl, 4 mM CaCl2. The experiments were run at a flow rate of 0.5 ml/min, the injection volumes were 250 μl, the concentration of CaM was 0.8 mM, and the concentration of the peptide was 4 mM."}, "[5]": {"test_system": "CaM", "assay": "Affinity chromatography of human brain MBP on CaM-sepharose", "assay_type": "binding", "description": "Calcium-dependent affinity chromatography of human MBP on CaM-sepharose (GE Healthcare) was carried out as follows: 200 μg of lyophilized human brain MBP were dissolved in 50 mM HEPES pH 7.5, 150 mM NaCl, 2 mM CaCl2. The same buffer that was used to equilibrate 100 μl of the CaM-sepharose matrix. The sample was mixed with the matrix and washed with 5 ml of the above buffer. Elution was done with 1.4 ml of 50 mM HEPES pH 7.5, 150 mM NaCl, 2 mM EGTA. The fractions were applied on a 18% SDS-PAGE gel. To detect which isoforms were bound to CaM-sepharose, fractions 2 (wash) and 7 (EGTA elution) were purified with Vivapure® C18 Micro spin columns prior to analysis by mass spectrometry. MALDI-ToF mass spectrometry was performed with a Voyager-DE STR Biospectrometry Workstation (Applied Biosystems). 1 μl of the protein sample was spotted on sinapinic acid matrix."}},
  "note": "pKd: −log10 of the molar value. Where no end group is shown, it is not given here.",
  "data": [
    {"substance": "HKGFKGVDAQGTLSKIFKL [MBP peptide]", "values": [
      {"measurement": "pKd", "setting": "[1]", "result": 4.59},
      {"measurement": "pKd", "setting": "[1]; 25°C (298.15 K), fit to the specific binding site only (one site, peaks 2–7), 1.0 mM peptide into 0.10 mM CaM, 50 mM HEPES pH 7.5, 20 mM CaCl2", "result": 5.47},
      {"measurement": "pKd", "setting": "[1]; 30°C (303.15 K), fit to the specific binding site only (one site, peaks 2–7), 1.0 mM peptide into 0.10 mM CaM, 50 mM HEPES pH 7.5, 20 mM CaCl2", "result": 5.64},
      {"measurement": "pKd", "setting": "[1]; 35°C (308.15 K), fit to the specific binding site only (one site, peaks 2–7), 1.0 mM peptide into 0.10 mM CaM, 50 mM HEPES pH 7.5, 20 mM CaCl2", "result": 5.72},
      {"measurement": "Kd in words", "setting": "[1]; ITC, different temperatures", "result": "low μM range"},
      {"measurement": "pKd", "setting": "[2]", "result": 4.24}
    ]},
    {"substance": "calmodulin [CaM]", "values": [
      {"measurement": "Random coil content", "setting": "[3]", "result": 0.12},
      {"measurement": "α-Helix content", "setting": "[3]", "result": 0.88},
      {"measurement": "β-Sheet content", "setting": "[3]", "result": 0},
      {"measurement": "apparent molecular weight in gel filtration", "setting": "[4]", "result": "approximately 30 kDa"}
    ]},
    {"substance": "myelin basic protein (HKGFKGVDAQGTLSKIFKL) [MBP, Native MBP protein isolated using the chloroform extraction method from post-mortem human brain; 17.2- and 18.5-kDa isoforms]", "values": [
      {"measurement": "binding to CaM-sepharose in presence of calcium", "setting": "[5]; 50 mM HEPES pH 7.5, 150 mM NaCl, 2 mM CaCl2", "result": "retained in the affinity matrix"},
      {"measurement": "release from CaM-sepharose by EGTA", "setting": "[5]; 50 mM HEPES pH 7.5, 150 mM NaCl, 2 mM EGTA", "result": "released"},
      {"measurement": "MBP isoforms in EGTA eluate", "setting": "[5]; MALDI-ToF mass spectrometry", "result": "17.2 and 18.5 kDa, were both present in the EGTA eluate"}
    ]}
  ]
}
